Laboratory results as given in patent US5886022A, “Substituted cycloalkanecarboxylic acid derivatives as matrix metalloprotease inhibitors” (priority 1997, dated 1999).
Blank lines part the entries; values can stand above or below the compound they belong to.

Legend:
[1] = target: T1, MMP-3 (recombinant truncated stromelysin) (Homo sapiens, UniProt P08254); test: Primary Thiopeptilide MMP-3 Inhibition Assay; format: biochemical; conditions: x (n): average IC50 of n separate determinations
T1 construct: made in house; host or cells: E. coli
T1 sequence (P08254 100-274 limits assumed): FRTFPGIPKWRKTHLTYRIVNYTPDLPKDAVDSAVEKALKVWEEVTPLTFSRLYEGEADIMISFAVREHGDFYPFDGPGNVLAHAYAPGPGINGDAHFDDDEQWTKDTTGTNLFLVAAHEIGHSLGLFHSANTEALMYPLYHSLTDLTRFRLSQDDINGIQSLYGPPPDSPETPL

[2] = target: T2, MMP-9 (Gelatinase-B, 92 kDa) (Homo sapiens, UniProt P14780); test: Thiopeptilide MMP-9 Inhibition Assay; format: biochemical; conditions: x (n): average IC50 of n separate determinations
T2 construct: from tissue; host or cells: human polymorphonuclear leukocytes from fresh whole blood (New York Blood Center), PMA-stimulated supernatant, purified
T2 sequence (P14780 107-707 limits assumed): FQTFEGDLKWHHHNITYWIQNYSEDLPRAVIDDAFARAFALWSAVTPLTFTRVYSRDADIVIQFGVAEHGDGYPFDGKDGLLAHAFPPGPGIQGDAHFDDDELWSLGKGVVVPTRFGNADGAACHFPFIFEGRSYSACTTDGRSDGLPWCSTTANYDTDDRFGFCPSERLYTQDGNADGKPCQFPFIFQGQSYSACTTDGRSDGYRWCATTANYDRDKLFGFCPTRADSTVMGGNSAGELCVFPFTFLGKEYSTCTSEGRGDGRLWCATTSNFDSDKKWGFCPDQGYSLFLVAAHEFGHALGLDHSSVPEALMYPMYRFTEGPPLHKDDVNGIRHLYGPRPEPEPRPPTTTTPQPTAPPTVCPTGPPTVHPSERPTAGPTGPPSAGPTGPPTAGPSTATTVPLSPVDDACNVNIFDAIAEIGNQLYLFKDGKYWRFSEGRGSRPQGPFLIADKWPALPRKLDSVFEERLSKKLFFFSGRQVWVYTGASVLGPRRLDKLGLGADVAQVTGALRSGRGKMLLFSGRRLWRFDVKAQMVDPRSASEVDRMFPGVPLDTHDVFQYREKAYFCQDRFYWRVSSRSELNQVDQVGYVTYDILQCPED
Procedure: MMP-9 was isolated modifying the previously described procedures of Hibbs et al (J. Biol. Chem., 260, 2493-2500, 1984) and Wilhelm et al (J. Biol. Chem., 264, 17213-17221, 1989). Briefly, polymorphonuclear leukocytes (PMN) preparations were isolated as described above from 3 or more units of freshly drawn whole blood obtained from the New York Blood Center (N.Y., N.Y.). Cells were resuspended in phosphate buffered saline (PBS) containing 100 ng/ml phorbol myristate acetate (PMA) in the presence of 50 mM di-isopropylfluorophospate (DFP), 1 μg/ml leupeptin and aprotinin, and 1 mg/ml catalase for 1 hr at 37° C. Supernatants were collected by centrifugation (300×g) and the samples were frozen at -70° C. All chromatographic methods were performed at 4° C. Thawed samples were concentrated 5-fold using an Amicon chamber equipped with a YM-10 membrane. The concentrate was pressure dialyzed against 0.02M Tris-HCl, 0.1M NaCl, 1 mM CaCl2, 1 μM ZnCl2, 0.001 % Brij-35, 0.02% sodium azide (NaN3), pH 7.5 and applied to DEAE ion exchange chromatography resin which was previously equilibrated with the same buffer at a flow rate of 0.4 ml/min. The column was extensively washed with the same buffer and gelatinase was eluted as 4 ml fractions from the column with 0.02M Tris-HCl, 0.5M NaCl, 1 mM CaCl2, 1 μM ZnCl2, 0.001% Brij-35, 0.02% NaN3, pH 7.5. Gelatinase containing fractions were observed by gelatin zymography (see below), loaded onto a gelatin agarose affinity resin and washed with the same buffer. Gelatinase activity was eluted at a flow rate of 1 ml/min from the column as 1 ml fractions with 0.02M Tris-HCl, 1M NaCl, 1 mM CaCl2, 1 μmM ZnCl2, 0.001% Brij-35, 0.02% NaN3, pH 7.5 containing 10% dimethyl sulfoxide (DMSO). The fractions containing gelatinase activity were pooled and dialyzed against 0.005M Tris-HCl, 5 mM NaCl, 0.5 mM CaCl2, 0.1 μM ZnCl2, 0.001% Brij-35, pH 7.4. The protein content associated with material was determined with a micro-BCA assay (Pierce, Rockford, Ill.), lyophilized and reconstituted to a desired working concentration (100 μg/ml).
Progelatinase (10 μg/ml) isolated from human PMNs (described above) was activated with 1 mM 4-aminophenylmercuric acetate (APMA) in 50 mM Tris-HCl, 200 mM NaCl, 5 mM CaCl2, 0.001% Brij-35, pH 7.6 at 37° C. for 16 hr. The activated enzyme was dialyzed against the above buffer to remove APMA. The thiopeptolide spectrophotometric ( Weingarten, H., Feder, J., Anal. Biochem., 147, 437-440, 1985) substrate hydrolysis assay was modified to a micro-assay format. Spectrophotometric analysis of MMP-9 activity required a 1000-fold dilution of activated MMP-9 (10 ng/ml, 0.14 nM) in assay buffer comprised of 50 mM 4-(2-hydroxyethyl)1-piperazine ethane sulfonic acid (HEPES), 0.15M NaCl, 10 mM CaCl2, 0.001% Brij-35, pH 6.5 between 100 and 1000-fold for enzyme assays. Reaction mixtures for inhibitor studies contained 1 mM Ac-Pro-Leu-Gly-S-Leu-Leu-Gly-o-ethyl thiopeptolide substrate dissolved in HEPES assay buffer pH 6.5, along with 0.5 mM 5,5'-dithio-bis-(nitrobenzoicacid), drug concentrations ranging from 0.5 nM to 5 μM and activated enzyme (10-100 ng) in a total volume of 130 μl. The hydrolysis of substrate was monitored at 405 nm using an automated plate reader (Molecular Devices, Menlo Park, Calif.). Enzyme mediated substrate hydrolysis was corrected for non-enzymatic hydrolysis of the substrate by the subtraction of values from control samples incubated in the absence of enzyme. Drug efficacy was reported as the percent inhibition of enzyme activity calculated as:
(Control Values-Treated Values)/Control Values×100
Two way analysis of variance was used to determine significance between individual test groups.
(§1) All IC50 values are expressed as nM. When "I=x %" is shown, x presents the % inhibition at 5 μM. When "x (n)" is shown, x is the erage IC50 value of n separate determinations.

[3] = target: T3, MMP-3 (recombinant stromelysin) (Homo sapiens, UniProt P08254); test: Secondary P218 Quenched fluorescence Assay for MMP-3 Inhibition; format: biochemical
T3 construct: Expression and Purification of Recombinant Truncated Prostromelysin (MMP-3); made in house
T3 sequence (P08254 100-274 limits assumed): as the sequence (P08254 100-274 limits assumed) above
Description: Truncated Prostromelysin-257 was expressed in a soluble form in E.coli as described by Marcy et al., Biochemistry, 30, 6476-6483, 1991. Soluble truncated prostromelysin was purified by a modification of the monoclonal antibody affinity chromatography method described by Housley et al., J. Biol. Chem., 268, 4481-87, 1993.
This assay was originally described by Knight et al., FEBS Letters, 296, 263-266, 1992, for a related substrate. The assay is run continuously in a 3.Oml cuvette using a Perkin-Elmer LS 50 B Spectrofluorimeter at 25° C. in a final volume of 2.0 mls. P218 substrate (10 mM) in 100% DMSO is diluted to a final concentration of 2.0 micromolar (μM) into assay buffer: 50 mM MES, pH 6.5 containing 150 mM NaCl, 10 mM CaCl2, 0.005% Brij-35, and 1%(v/v) DMSO. Test compounds(10 mM) in DMSO are diluted in assay buffer at an initial concentration of 10 to 100 micromolar. […] The reaction is initiated by the addition of recombinant stromelysin (MMP-3) at a final concentration of 1.0 nM. Upon peptide cleavage, the fluorescent MCA group was detected using an excitation wavelength of 328 nanometers and an emission wavelength of 393 nanometers. The assay is linear from 0.2 to 5 nM MMP-3 concentration and percent inhibition is calculated as described above for the primary thiopeptilide assay and IC50 values are determined by a linear regression analysis of percent inhibition versus log drug concentration. The peptide sequence of the MCA substrate, hereinafter esignated P218, is shown below:
MCA-Pro-Lys-Pro-Leu-Ala-Leu-DPA-Ala-Arg-NH2 P218
as §1

[4] = fenbufen analogs, literature; cited from earlier work

- IC50 [1]: 26 nM
- IC50 [2]: 25 nM
- IC50 ([3]; P218 substrate, x (n): average IC50 of n separate determinations, read-out: MMP-3 Fluorogenic IC50): 12 nM
Compound: O=C(O)[C@@H]1[C@@H](C(=O)c2ccc(-c3ccc(Cl)cc3)cc2)CC[C@H]1Sc1ccccc1 (single isomer, unassigned) [Example 211, Cyclopentanecarboxylic acid, 2-[(4'-chloro[1,1'-biphenyl]-4-yl)carbonyl]-5-(phenylthio)-, [1S-(1α,2β,5β)]-]

Compound: O=C(O)CC(C(=O)c1ccc(-c2ccccc2)cc1)c1ccccc1 (stereo not shown) [LXXVII]
- activity in words [4]: inactive

Compound: CC(CC(=O)c1ccc(-c2ccccc2)cc1)C(=O)O (stereo not shown) [XLVIII]
- activity in words [4]: inactive

Compound: MCA-Pro-Lys-Pro-Leu-Ala-Leu-DPA-Ala-Arg-NH2 [Example P218, reference compound]
- cat/Km value of substrate for MMP-3 ([3]; pH 6.5): 56,000 M^-1 sec^-1
- Km ([3]; pH 6.5, read-out: Km of substrate for MMP-3): 16 µM
